Activity calls are given as the source filed them.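 How the source made its calls: active means growth-inhibition EC50 no more than tenfold above the top tested dose; inconclusive means flat fit between 30% and 70% inhibition, or unreliable fit; inactive means EC50 more than tenfold above the top tested dose.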
System: E. coli NEB5alpha growth, BacTiter-Glo luminescence, 4 h
Test: Escherichia coli growth inhibition, dose response, counter-screen for MEX-5/POS-1 RNA-binding inhibitor project, luminescence, NEB5alpha (AID 1959);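 further: pUC19-transformed ampicillin-resistant cells grown in LB with ampicillin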

Structure (SMILES) | EC50
Cc1c(N=C2Nc3cccc4cccc2c34)c(=O)n(-c2ccccc2)n1C | > 11 µM (inactive)
COc1ccc(C2C(C(C)=O)=C(C)N=c3s/c(=C\c4cc(C)n(C)c4C)c(=O)n32)c(OC)c1 (centres undefined) | > 11 µM (inactive)
CC(C)(C)c1ccc(OCc2ccc(C(=O)Nc3cccnc3)o2)cc1 | > 11 µM (inactive)
CN(C)c1ccc(/C=C/c2nc3ccccc3s2)cc1 | > 11 µM (inactive)
CC1(C)CC(=O)C2=C(C1)OC(N)=C(C#N)C2c1ccccc1OC(=O)N1CCOCC1 (centres undefined) | > 11 µM (inactive)
O=C(CNS(=O)(=O)c1ccc([N+](=O)[O-])cc1)N/N=C/c1ccc(O)cc1O | > 11 µM (inactive)
COc1ccccc1CCC(=O)OCc1csc(CC(=O)Nc2ccccc2C)n1 | > 11 µM (inactive)
O=c1[nH]c(CSc2ncccn2)nc2c1cnn2-c1ccccc1 | > 11 µM (inactive)
CCOC(=O)c1ccc(N/C=C2\CCCCC2=O)cc1 | > 11 µM (inactive)
CCOc1ccc(Br)cc1S(=O)(=O)NC(=O)c1ccccc1 | > 11 µM (inactive)
COc1cc(C2C(C#N)=C(N)OC3=C2C(=O)CCC3)ccc1OC(=O)N1CCOCC1 (centres undefined) | > 11 µM (inactive)
COc1ccc(C2CC(c3cccs3)=NN2c2ccc(C=O)cc2)cc1 (centres undefined) | > 11 µM (inactive)
O=C1C2CC=C(Cl)CC2C(=O)N1CCc1ccccc1 (centres undefined) | > 11 µM (inactive)
Cn1c(=O)c2[nH]c(N/N=C(/C#N)C(N)=O)nc2n(C)c1=O | > 11 µM (inactive)
COc1ccc2c(c1)c1nc3ccccc3nc1n2CCCN1C(=O)c2ccccc2C1=O | > 11 µM (inactive)
CCN1C(=O)/C(=C\c2cccs2)C(C(=O)OC)=C1C | > 11 µM (inactive)
Cc1ccc(C)n1-c1ccc(C(=O)O)cc1 | > 11 µM (inactive)
COCCNC(=O)C1Nc2ccc(OC(F)(F)F)cc2C2C=CCC12 (centres undefined) | > 11 µM (inactive)
CN(C)CCCN1C(=O)c2cccc3c(Br)ccc(c23)C1=O | > 11 µM (inactive)
COC(=O)c1ccccc1NCc1cc(=O)oc2cc(O)c(O)cc12 | > 11 µM (inactive)
Cc1ccc(N=Cc2nc(-c3ccc(C)cc3)oc2O)cc1 | > 11 µM (inactive)
Oc1ccc(-c2cn3c(n2)SCC3)cc1O | > 11 µM (inactive)
Cc1cccc2sc(NNC(=O)c3cc(=O)c4ccccc4o3)nc12 | > 11 µM (inactive)

Structure (SMILES) | EC50
N#CC1=C(N)C(C#N)(C#N)C(c2cccnc2)C2CCCC=C12 (centres undefined) | > 11 µM (inactive)
O=C(N/N=C\c1cc([N+](=O)[O-])ccc1N1CCCC1)c1ccccn1 | > 11 µM (inactive)
COCCN1C(=O)/C(=C/c2c(OC)cc(OC)cc2OC)C(=O)N(c2ccccc2)C1=O | > 11 µM (inactive)
CC1CCc2nn(CC(=O)NCCN3CCCCC3C)cc2C1 (centres undefined) | > 11 µM (inactive)
O=C(O)c1ccc2c(c1)C1C=CCC1C(c1ccncc1)N2 (centres undefined) | > 11 µM (inactive)
Cc1ccc(/C=N/Nc2ncnc3nc[nH]c23)cc1 | > 11 µM (inactive)
Cc1noc(/C=C/N(C)C)c1S(=O)(=O)N1CCC(C(=O)O)CC1 | > 11 µM (inactive)
O=C1c2ccccc2-c2onc3ccc(NCc4ccco4)c1c23 | > 11 µM (inactive)
COc1cccc(C2C(C#N)=C(N)OC3=C2C(=O)CC(c2ccco2)C3)c1OCc1ccc(F)cc1 (centres undefined) | > 11 µM (inactive)
CN(C)c1ccc2nc3ccc(=[N+](C)C)cc-3sc2c1 | > 11 µM (inactive)
COC(=O)C1=COC(C)C2CN3CCc4c([nH]c5cc(OC)c(OC)cc45)C3CC12 (centres undefined) | > 11 µM (inactive)
CCc1c(C)nc(SCC(=O)NNC(=O)c2ccco2)[nH]c1=O | > 11 µM (inactive)
O=C(O)CCCCCn1c(SCC(=O)c2ccc(O)c(O)c2)nc2ccsc2c1=O | > 11 µM (inactive)
CC1(OC(=O)c2ccco2)C(=O)C=C2C=C(c3ccsc3)OC=C2C1=O (centres undefined) | > 11 µM (inactive)
O=C1C(Cl)=C(Nc2ccccc2O)C(=O)N1c1ccccc1 | > 11 µM (inactive)
CCN1C=CC2=C(C#N)C(N)C(C#N)(C#N)C(c3ccccc3C(F)(F)F)C2C1 (centres undefined) | > 11 µM (inactive)
CCCN1CCc2cccc3c2[C@H]1Cc1ccc(O)c(O)c1-3 | > 11 µM (inactive)
COC(=O)Cn1cc(C=C2C(=O)NC(=O)NC2=O)c2ccccc21 | > 11 µM (inactive)
COC(=O)c1ccc(-n2c(CCC(=O)O)ccc2-c2ccc(C)cc2)cc1 | > 11 µM (inactive)
Cc1nnc(N2C(=O)C(O)=C(C(=O)c3ccco3)C2c2cccc3ccccc23)s1 (centres undefined) | > 11 µM (inactive)
COc1[nH]c(/N=C/c2ccccc2)c(C#N)c1C#N | > 11 µM (inactive)
O=C1NC(=S)N(c2ccccc2)C(=O)/C1=C/c1ccco1 | > 11 µM (inactive)
COC(=O)c1c(NC(=O)CC2Nc3ccccc3NC2=O)sc(C)c1C (centres undefined) | > 11 µM (inactive)

Structure (SMILES) | EC50
O=C(N=C1SC2CS(=O)(=O)CC2N1c1ccccc1)C1CC1 (centres undefined) | > 11 µM (inactive)
Cc1nc(S/C(=C\c2ccc(-c3ccc(C(=O)O)c(Cl)c3)o2)C(=O)O)n[nH]1 | > 11 µM (inactive)
Cc1ccc(NC(=O)CSc2nnc(N)s2)cc1S(=O)(=O)N1CCOCC1 | > 11 µM (inactive)
N#CC(C#N)=Cc1ccc(-c2ccccc2)o1 | > 11 µM (inactive)
CC1=C(C#N)C(=O)OC(C)(C)C1 | > 11 µM (inactive)
CC1=Nc2ccccc2/C1=C\c1nc(-c2ccc(F)cc2)oc1O | > 11 µM (inactive)
Cn1c(=O)c(N)c2c3c(c(Br)ccc31)C(=O)c1ccccc1-2 | > 11 µM (inactive)
COc1ccc(-n2nc(C(=O)c3cccs3)cc(-c3nc4ccccc4[nH]3)c2=N)cc1 | > 11 µM (inactive)
COc1cc2c(cc1/C=C1/NC(=O)N(c3ccccc3)C1=O)OCO2 | > 11 µM (inactive)
CCCC[n+]1ccn(C2=C([O-])c3ccccc3C(=O)/C2=N\S(=O)(=O)c2ccc(Cl)cc2)c1 | > 11 µM (inactive)
Cc1ccc2cc(/C=C3\N=C(c4ccccc4)OC3=O)c(N3CCOCC3)nc2c1 | > 11 µM (inactive)
Cc1ncc(/C=C2\C(=O)Nc3ccccc32)[nH]1 | > 11 µM (inactive)
Cc1ccc(/C=C2/C(=O)c3ccc(C(=O)O)cc3C2=O)o1 | > 11 µM (inactive)
Cc1cc(C)cc(N2C(=O)NC(=O)/C(=C\c3cc(C)n(C)c3C)C2=O)c1 | > 11 µM (inactive)
N#CC1=C(N)OC2=C(C(=O)CCC2)C12C(=O)N1CCCc3cccc2c31 (centres undefined) | > 11 µM (inactive)
O=C1C(=Cc2cccn2-c2ccccc2)C(=O)c2ccccc21 | > 11 µM (inactive)
Cc1cc(/C=c2\sc3nc4ccccc4n3c2=O)c(C)n1-c1ccc(C(=O)O)cc1 | > 11 µM (inactive)
CC/C(=C\C=C\[C@@H]1C=C[C@@H]2CCC[C@H]2[C@@H]1C(=O)c1ccc[nH]1)[C@@H]1O[C@@H]([C@@H](C)C(=O)O)CC[C@@H]1C | > 11 µM (inactive)
CC(=O)c1ccc(C(=O)Nc2sc3c(c2C(N)=O)CCN(Cc2ccccc2)C3)cc1 | > 11 µM (inactive)
Cc1ccc(/C=C(\C#N)C(=O)Nc2c(C)cccc2C)s1 | > 11 µM (inactive)
CC1CC=C2C(C#N)=C(N)C(C#N)(C#N)C(c3cccs3)C2C1 (centres undefined) | > 11 µM (inactive)
Oc1ccc(/C=N/Nc2ncnc3nc[nH]c23)cc1 | > 11 µM (inactive)
CC(=NC1CCCC1)c1c(C)[nH]n(-c2nc3ccccc3s2)c1=O | > 11 µM (inactive)
